How the values were obtained:
hJAK2 = hJAK2 (Homo sapiens (Human), UniProt O60674); assay: hJAK2 LANCE TR-FRET enzymatic assay; type: biochemical; settings: read-out: JAK2 IC50
TBK1 = TBK1 (Homo sapiens (Human), UniProt Q9UHD2); assay: TBK1 TR-FRET enzymatic assay;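 also: phosphorylation of a biotinylated Ser/Thr peptide by purified full-length recombinant TBK1, read by TR-FRET after 240 min at 25 °C, IC50 is the geometric mean of at least four runs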
TBK1, sequence (Q9UHD2 whole entry): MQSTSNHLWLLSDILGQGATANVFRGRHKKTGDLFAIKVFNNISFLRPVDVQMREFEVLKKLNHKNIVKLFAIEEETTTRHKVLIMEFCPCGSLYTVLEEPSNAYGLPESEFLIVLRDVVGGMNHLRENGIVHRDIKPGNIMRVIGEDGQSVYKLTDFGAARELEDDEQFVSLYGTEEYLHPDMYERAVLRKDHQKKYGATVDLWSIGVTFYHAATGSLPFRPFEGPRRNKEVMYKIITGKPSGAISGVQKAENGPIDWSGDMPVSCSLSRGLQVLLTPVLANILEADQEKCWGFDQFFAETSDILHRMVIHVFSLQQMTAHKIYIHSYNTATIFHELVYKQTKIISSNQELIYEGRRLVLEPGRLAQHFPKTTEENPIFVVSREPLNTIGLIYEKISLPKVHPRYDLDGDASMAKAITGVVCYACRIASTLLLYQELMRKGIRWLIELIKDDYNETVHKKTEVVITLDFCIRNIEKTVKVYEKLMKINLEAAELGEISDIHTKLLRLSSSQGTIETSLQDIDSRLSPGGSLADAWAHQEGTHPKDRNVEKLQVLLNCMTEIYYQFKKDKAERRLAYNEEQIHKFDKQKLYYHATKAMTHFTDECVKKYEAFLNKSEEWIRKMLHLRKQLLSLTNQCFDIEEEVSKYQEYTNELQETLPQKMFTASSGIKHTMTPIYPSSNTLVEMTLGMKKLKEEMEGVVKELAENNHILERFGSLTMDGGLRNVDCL

hJAK2, sequence (O60674 whole entry): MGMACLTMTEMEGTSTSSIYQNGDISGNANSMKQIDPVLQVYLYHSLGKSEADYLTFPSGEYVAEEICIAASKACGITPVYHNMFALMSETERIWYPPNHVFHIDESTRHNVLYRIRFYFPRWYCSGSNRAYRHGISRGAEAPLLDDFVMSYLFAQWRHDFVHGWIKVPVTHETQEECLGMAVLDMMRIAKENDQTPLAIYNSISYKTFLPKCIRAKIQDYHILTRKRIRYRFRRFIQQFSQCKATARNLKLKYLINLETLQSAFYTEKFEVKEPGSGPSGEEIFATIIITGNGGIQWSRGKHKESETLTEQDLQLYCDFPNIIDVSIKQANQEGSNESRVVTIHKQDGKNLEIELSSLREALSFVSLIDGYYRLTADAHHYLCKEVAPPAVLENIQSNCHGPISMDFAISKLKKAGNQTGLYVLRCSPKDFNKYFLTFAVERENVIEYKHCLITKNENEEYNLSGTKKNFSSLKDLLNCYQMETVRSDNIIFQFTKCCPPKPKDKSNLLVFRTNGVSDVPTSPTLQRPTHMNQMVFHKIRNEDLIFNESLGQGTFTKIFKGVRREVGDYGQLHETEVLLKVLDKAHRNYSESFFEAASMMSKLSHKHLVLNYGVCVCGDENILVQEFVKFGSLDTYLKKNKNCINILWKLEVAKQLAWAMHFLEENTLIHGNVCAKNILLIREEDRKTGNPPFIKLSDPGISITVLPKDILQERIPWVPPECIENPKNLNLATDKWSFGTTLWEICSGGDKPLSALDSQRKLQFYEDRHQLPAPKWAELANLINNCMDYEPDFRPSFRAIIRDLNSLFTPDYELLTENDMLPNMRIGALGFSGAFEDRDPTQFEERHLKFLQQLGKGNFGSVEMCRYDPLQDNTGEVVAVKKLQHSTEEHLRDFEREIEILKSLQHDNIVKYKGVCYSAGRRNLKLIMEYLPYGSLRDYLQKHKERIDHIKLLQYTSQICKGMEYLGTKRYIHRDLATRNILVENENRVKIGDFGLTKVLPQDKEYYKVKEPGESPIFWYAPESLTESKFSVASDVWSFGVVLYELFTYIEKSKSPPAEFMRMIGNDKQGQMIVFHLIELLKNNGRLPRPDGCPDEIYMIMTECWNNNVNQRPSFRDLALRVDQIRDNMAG

Row | SMILES | IC50 (hJAK2) | IC50 (TBK1)
1 | N#Cc1cc(-c2ncnc(Nc3ccc(N4CCN(C5COC5)CC4)cc3)n2)ccc1O[C@@H]1CCN(C(=O)CO)C1 [Example 30, (R)-2-((1-(2-hydroxyacetyl)pyrrolidin-3-yl)oxy)-5-(4-((4-(4-(oxetan-3-yl)piperazin-1-yl)phenyl)amino)-1,3,5-triazin-2-yl)benzonitrile] | 387 nM | 3 nM
2 | N#CCC(=O)N1CCC(Oc2ccc(-c3ncnc(Nc4ccc(N5CCN(C6COC6)CC5)cc4)n3)cc2C#N)CC1 [Example 44, 2-((1-(2-cyanoacetyl)piperidin-4-yl)oxy)-5-(4-((4-(4-(oxetan-3-yl)piperazin-1-yl)phenyl)amino)-1,3,5-triazin-2-yl)benzonitrile] | 444 nM | 9 nM
3 | CS(=O)(=O)c1ccc(Nc2ncnc(-c3ccc(OC4CCOCC4)c(C#N)c3)n2)cc1 [Example 50, 5-(4-((4-(methylsulfonyl)phenyl)amino)-1,3,5-triazin-2-yl)-2-((tetrahydro-2H-pyran-4-yl)oxy)benzonitrile] | > 1000 nM | 5 nM
4 | N#Cc1cc(-c2ncnc(Nc3cccc(N4CCOCC4)c3)n2)ccc1O[C@@H]1CCN(C(=O)CO)C1 [Example 81, (R)-2-((1-(2-hydroxyacetyl)pyrrolidin-3-yl)oxy)-5-(4-((3-morpholinophenyl)amino)-1,3,5-triazin-2-yl)benzonitrile] | 290 nM | 27 nM
5 | N#Cc1cc(-c2ncnc(Nc3ccc(C(N)=O)cc3)n2)ccc1O[C@@H]1CCN(C(=O)CO)C1 [Example 85, (R)-4-((4-(3-cyano-4-((1-(2-hydroxyacetyl)pyrrolidin-3-yl)oxy)phenyl)-1,3,5-triazin-2-yl)amino)benzamide] | 678 nM | 13 nM
6 | N#Cc1cc(-c2ncnc(Nc3ccc(N4CCN(C5COC5)CC4)cc3)n2)ccc1O[C@H]1CCN(C(=O)c2nnc[nH]2)CC1(F)F [Example 166, (S)-2-((3,3-difluoro-1-(4H-1,2,4-triazole-3-carbonyl)piperidin-4-yl)oxy)-5-(4-((4-(4-(oxetan-3-yl)piperazin-1-yl)phenyl)amino)-1,3,5-triazin-2-yl)benzonitrile] | 53 nM | 2 nM
7 | Cc1n[nH]c(C(=O)N2CC[C@H](Oc3ccc(-c4ncnc(Nc5ccc(N6CCN(C7COC7)CC6)cc5)n4)cc3C#N)[C@H](F)C2)n1 [Example 451, 2-(((3R,4S)-3-fluoro-1-(3-methyl-1H-1,2,4-triazole-5-carbonyl)piperidin-4-yl)oxy)-5-(4-((4-(4-(oxetan-3-yl)piperazin-1-yl)phenyl)amino)-1,3,5-triazin-2-yl)benzonitrile] | 90 nM | 
8 | N#Cc1cc(-c2ncnc(Nc3cnn(C(F)F)c3)n2)ccc1O[C@H]1CCN(C(=O)CO)C[C@H]1F [Example 454, 5-(4-((1-(difluoromethyl)-1H-pyrazol-4-yl)amino)-1,3,5-triazin-2-yl)-2-(((3R,4S)-3-fluoro-1-(2-hydroxyacetyl)piperidin-4-yl)oxy)benzonitrile] | 621 nM | 
9 | C[C@@H](O)C(=O)N1CC[C@H](Oc2ccc(-c3ncnc(Nc4ccc(N5CCN(C6COC6)CC5)cc4)n3)cc2C#N)[C@H](F)C1 [Example 464, 2-(((3R,4S)-3-fluoro-1-((R)-2-hydroxypropanoyl)piperidin-4-yl)oxy)-5-(4-((4-(4-(oxetan-3-yl)piperazin-1-yl)phenyl)amino)-1,3,5-triazin-2-yl)benzonitrile] | 332 nM | 
10 | CC(=O)N1CC[C@H](Oc2ccc(-c3ncnc(Nc4ccc(S(C)(=N)=O)cc4)n3)cc2C#N)C(F)(F)C1 (stereo partly shown) [Example 481] | 320 nM | 
11 | COc1cc(Nc2ncnc(-c3ccc(O[C@H]4CCN(C(=O)[C@H](C)O)C[C@H]4F)c(C#N)c3)n2)cnc1N1CCN(C2COC2)CC1 [Example 514, 2-(((3R,4S)-3-fluoro-1-((S)-2-hydroxypropanoyl)piperidin-4-yl)oxy)-5-(4-((5-methoxy-6-(4-(oxetan-3-yl)piperazin-1-yl)pyridin-3-yl)amino)-1,3,5-triazin-2-yl)benzonitrile] | ≥ 1000 nM | 
12 | C[C@H](O)C(=O)N1CC[C@H](Oc2ccc(-c3ncnc(Nc4ccc([C@@H]5C(=O)N(C)CCN5C)cc4)n3)cc2C#N)[C@H](F)C1 [Example 518, 5-(4-((4-((R)-1,4-dimethyl-3-oxopiperazin-2-yl)phenyl)amino)-1,3,5-triazin-2-yl)-2-(((3R,4S)-3-fluoro-1-((S)-2-hydroxypropanoyl)piperidin-4-yl)oxy)benzonitrile] | ≥ 1000 nM | 
13 | N#Cc1cc(-c2ncnc(Nc3ccc(N4CCN(C5COC5)CC4)cc3)n2)ccc1O[C@H]1CCN(C(=O)[C@@H]2CSC(=O)N2)C[C@H]1F [Example 530, 2-(((3R,4S)-3-fluoro-1-((R)-2-oxothiazolidine-4-carbonyl)piperidin-4-yl)oxy)-5-(4-((4-(4-(oxetan-3-yl)piperazin-1-yl)phenyl)amino)-1,3,5-triazin-2-yl)benzonitrile] | 289 nM | 
14 | COc1cc(Nc2ncnc(-c3ccc(O[C@H]4CCN(C(=O)CC#N)C[C@H]4F)c(C#N)c3)n2)ccc1N1CCN(C2COC2)CC1 [Example 558, 2-(((3R,4S)-1-(2-cyanoacetyl)-3-fluoropiperidin-4-yl)oxy)-5-(4-((3-methoxy-4-(4-(oxetan-3-yl)piperazin-1-yl)phenyl)amino)-1,3,5-triazin-2-yl)benzonitrile] | 26 nM | 
15 | Cc1cc(Nc2ncnc(-c3ccc(O[C@H]4CCN(C(=O)[C@@H](O)CO)C[C@H]4F)c(C#N)c3)n2)ccc1N1CCN(C2COC2)CC1 [Example 575, 2-(((3R,4S)-1-((S)-2,3-dihydroxypropanoyl)-3-fluoropiperidin-4-yl)oxy)-5-(4-((3-methyl-4-(4-(oxetan-3-yl)piperazin-1-yl)phenyl)amino)-1,3,5-triazin-2-yl)benzonitrile] | 62 nM | 
16 | Cc1cc(Nc2ncnc(-c3ccc(O[C@H]4CCN(C(=O)[C@H](O)CO)C[C@H]4F)c(C#N)c3)n2)ccc1N1CCN(C2COC2)CC1 [Example 576, 2-(((3R,4S)-1-((R)-2,3-dihydroxypropanoyl)-3-fluoropiperidin-4-yl)oxy)-5-(4-((3-methyl-4-(4-(oxetan-3-yl)piperazin-1-yl)phenyl)amino)-1,3,5-triazin-2-yl)benzonitrile] | 56 nM | 
17 | COc1cc(Nc2ncnc(-c3ccc(O[C@H]4CCN(C(=O)[C@@H](O)CO)C[C@H]4F)c(C#N)c3)n2)ccc1N1CCN(C2COC2)CC1 [Example 578, 2-(((3R,4S)-1-((S)-2,3-dihydroxypropanoyl)-3-fluoropiperidin-4-yl)oxy)-5-(4-((3-methoxy-4-(4-(oxetan-3-yl)piperazin-1-yl)phenyl)amino)-1,3,5-triazin-2-yl)benzonitrile] | 70 nM | 
18 | COc1cc(Nc2ncnc(-c3ccc(O[C@H]4CCN(C(=O)[C@H](O)CO)C[C@H]4F)c(C#N)c3)n2)ccc1N1CCN(C2COC2)CC1 [Example 579, 2-(((3R,4S)-1-((R)-2,3-dihydroxypropanoyl)-3-fluoropiperidin-4-yl)oxy)-5-(4-((3-methoxy-4-(4-(oxetan-3-yl)piperazin-1-yl)phenyl)amino)-1,3,5-triazin-2-yl)benzonitrile] | 48 nM | 
19 | C[C@H](O)C(=O)N1CC[C@H](Oc2ccc(-c3ncnc(Nc4ccc(N5CCN6CCOC[C@H]6C5)cc4)n3)cc2C#N)[C@H](F)C1 [Example 619, 2-(((3R,4S)-3-fluoro-1-((S)-2-hydroxypropanoyl)piperidin-4-yl)oxy)-5-(4-((4-((R)-hexahydropyrazino[2,1-c][1,4]oxazin-8(1H)-yl)phenyl)amino)-1,3,5-triazin-2-yl)benzonitrile] | 364 nM | 
